Experimental data as given in US20190062699A1, “HIGHLY FUNCTIONAL HEPATOCYTE AND USE THEREOF” (GAIA BioMedicine Inc., priority 2016, published 2019).
Entries after “also recorded” stand apart in the source; their conditions may differ.

Test system: iPS-HEP cells
Experiment: ammonia metabolism test (Ammonia Test Wako) on iPS-derived hepatocytes
Assay type: cell-based, human
Details: compounds in differentiation induction medium III (FH1 final 50 μM, FPH1 final 20 μM); compared with use of feeder cells (HUVECs, MSCs); 2 mM ammonia, 24 hours
Experimental: When HUVEC and MSC are used as feeder cells, perform co-culture as required as adhesion culture (refer to Non-patent document 1 cited below). • 2.11. Indicate the date, name of the cells, etc. on the culture plate, and carry out culture in an incubator at 37° C. and 5% CO2. • 2.12. Carry out an operation of removing the supernatant, and adding flesh medium III on every other day up to Day 17. • [Day 17: Completion of CiPS-Hep->ammonia metabolism test] • 1. Prepare HBM (cocktail)+aqueous ammonia (henceforth referred to as ammonia medium) in a volume of 1 ml/well×2.
• 2. Remove the culture supernatant, and wash the cell surfaces once with 1 ml of HBM, and once with ammonia HBM. • 3. […]
• 4. […] During the centrifugation, turn on the power sources of microplate reader and personal computer, and choose Tecan i-control. • 8. […] Remove a lid, set the plate on the microplate reader, and sway the plate (double click “Shaking”, choose “10 sec” and “Normal”, and click “Start”). • 11. […] Set the plate on the microplate reader, and sway the plate. • 13. […] Set the plate on the microplate reader, and sway the plate. • 15. […] Finely wipe the bottom of the plate, and set the plate on the microplate reader with adjusting the upper left corner. • 18. Measure absorbance (620 or 630 nm) (double click “Measure” of “Absorbance”, select the well for measurement at 620 nm in “Details”, and click “Start”).

Row | SMILES | ammonia-metabolizing function-enhancing effect
1 | Cc1ccc(Cl)cc1N(CC(=O)Nc1c(F)cccc1F)S(C)(=O)=O [FPH1, 2-N-(5-chloro-2-methylphenyl)(methylsulfonamido)-N-(2,6-difluorophenyl)acetamide] | higher ammonia-metabolizing function-enhancing effect compared with use of feeder cells; also recorded: higher metabolism-enhancing effect compared with use of feeder cells
2 | CC(=O)Nc1ccc(Cc2ccc(NC(C)=O)cc2)cc1 [FH1, N,N′-(methylenebis)(4,1-phenylene)diacetamide] | higher ammonia-metabolizing function-enhancing effect compared with use of feeder cells; also recorded: higher metabolism-enhancing effect compared with use of feeder cells
